Laboratory results taken from ChEMBL document CHEMBL3885861, “Open TG-GATES”.

Species: Rattus norvegicus
Experiment: Open TG-GATES - Regimen: Daily Repeat
Type: toxicity, organism-based, Sprague-Dawley
Design: regimen Daily Repeat, gender Male, age 6 weeks
Settings: in vivo, po, route gavage; for Bas / Eos / Fbg / Ht / Lym / MCHC / MCV / Mono / PT / Plat / RBC / Ret / WBC / Neu: tissue Blood; for KIDNEY_L / KIDNEY_R / KIDNEY_TOTAL: tissue Kidney; for ALT / AST / CRE / Ca / DBIL / GLC / IP / K / LDH / Na / PL / RALB / TBIL / TC / TG / TP / gamma-GTP / BUN / Cl: tissue Plasma
[1] = 240 mg/kg, 72 h, dose level Middle, time 3 day
[2] = 240 mg/kg, […], dose level Middle, time 7 day
[3] = 240 mg/kg, […], dose level Middle, time 14 day
[4] = 240 mg/kg, […], dose level Middle, time 28 day

COc1ccc([C@@H]2Sc3ccccc3N(CCN(C)C)C(=O)[C@@H]2OC(C)=O)cc1 [DILTIAZEM]
Bas [1]: 0.2% | Eos [1]: 1% | Fbg [1]: 294.4 mg/dL | Ht [1]: 40.4% | Lym [1]: 71.6% | MCHC [1]: 32.8% | MCV [1]: 65.7 fL | Mono [1]: 3.4% | PT [1]: 13.8 s | Plat [1]: 118.5 x10_4/uL | RBC [1]: 614.8 x10_4/ul | Ret [1]: 8.8% | WBC [1]: 106.5 x10_2/uL | KIDNEY_L [1]: 1 g | KIDNEY_R [1]: 1 g | KIDNEY_TOTAL [1]: 2 g | ALT [1]: 50 IU/L | AST [1]: 67.4 IU/L | CRE [1]: 0.2 mg/dL | Ca [1]: 11.3 mg/dL | DBIL [1]: 0.02 mg/dL | GLC [1]: 183 mg/dL | IP [1]: 8.1 mg/dL | K [1]: 3.9 meq/L | LDH [1]: 81.8 IU/L | Na [1]: 144 meq/L | PL [1]: 153.8 mg/dL | RALB [1]: 2.7 g/dL | TBIL [1]: 0.024 mg/dL | TC [1]: 87.6 mg/dL | TG [1]: 99.4 mg/dL | TP [1]: 5.6 g/dL | gamma-GTP [1]: 1.2 IU/L | TERMINAL_BW [2]: 251.4 g | TERMINAL_BW [3]: 321.6 g | TERMINAL_BW [4]: 419 g | Bas [2]: 0% | Eos [2]: 0.8% | Fbg [2]: 301.4 mg/dL | Ht [2]: 41% | Lym [2]: 75.2% | MCHC [2]: 32.9% | MCV [2]: 63.6 fL | Mono [2]: 2.6% | Neu [2]: 20.6% | PT [2]: 13.9 s | Plat [2]: 129.2 x10_4/uL | RBC [2]: 644.6 x10_4/ul | Ret [2]: 7% | WBC [2]: 72.6 x10_2/uL | Bas [3]: 0.6% | Eos [3]: 0.8% | Fbg [3]: 336.4 mg/dL | Ht [3]: 42.8% | Lym [3]: 73% | MCHC [3]: 33.1% | MCV [3]: 61.7 fL | Mono [3]: 2.6% | Neu [3]: 22.2% | PT [3]: 14.1 s | Plat [3]: 131.9 x10_4/uL | RBC [3]: 693.6 x10_4/ul | Ret [3]: 5.6% | WBC [3]: 112.7 x10_2/uL | Bas [4]: 0.2% | Eos [4]: 1.4% | Fbg [4]: 305.4 mg/dL | Ht [4]: 45.7% | Lym [4]: 69% | MCHC [4]: 34.4% | MCV [4]: 58.1 fL | Mono [4]: 2.4% | Neu [4]: 26.6% | PT [4]: 13.9 s | Plat [4]: 109.1 x10_4/uL | RBC [4]: 786.8 x10_4/ul | Ret [4]: 2.5% | WBC [4]: 119 x10_2/uL | KIDNEY_L [2]: 1.1 g | KIDNEY_R [2]: 1 g | KIDNEY_TOTAL [2]: 2.1 g | KIDNEY_L [3]: 1.3 g | KIDNEY_R [3]: 1.4 g | KIDNEY_TOTAL [3]: 2.7 g | KIDNEY_L [4]: 1.5 g | KIDNEY_R [4]: 1.5 g | KIDNEY_TOTAL [4]: 3 g | ALT [2]: 38.6 IU/L | AST [2]: 61.6 IU/L | BUN [2]: 15 mg/dL | CRE [2]: 0.2 mg/dL | Ca [2]: 11.4 mg/dL | Cl [2]: 105.8 meq/L | DBIL [2]: 0.01 mg/dL | GLC [2]: 190.6 mg/dL | IP [2]: 8.2 mg/dL | K [2]: 3.9 meq/L | LDH [2]: 97.2 IU/L | Na [2]: 144.2 meq/L | PL [2]: 155 mg/dL | RALB [2]: 2.8 g/dL | TBIL [2]: 0.016 mg/dL | TC [2]: 81.2 mg/dL | TG [2]: 117 mg/dL | TP [2]: 5.9 g/dL | gamma-GTP [2]: 1.2 IU/L | ALT [3]: 44.4 IU/L | AST [3]: 67.8 IU/L | BUN [3]: 14.8 mg/dL | CRE [3]: 0.2 mg/dL | Ca [3]: 11 mg/dL | DBIL [3]: 0.012 mg/dL | GLC [3]: 194.4 mg/dL | IP [3]: 7.6 mg/dL | K [3]: 4 meq/L | LDH [3]: 80 IU/L | Na [3]: 144.4 meq/L | PL [3]: 165.4 mg/dL | RALB [3]: 2.8 g/dL | TBIL [3]: 0.014 mg/dL | TC [3]: 84.2 mg/dL | TG [3]: 125.4 mg/dL | TP [3]: 6.1 g/dL | gamma-GTP [3]: 1.4 IU/L | ALT [4]: 43.8 IU/L | AST [4]: 64.2 IU/L | BUN [4]: 17.2 mg/dL | CRE [4]: 0.2 mg/dL | Ca [4]: 11.3 mg/dL | Cl [4]: 108.6 meq/L | DBIL [4]: 0.012 mg/dL | GLC [4]: 188.6 mg/dL | IP [4]: 7 mg/dL | K [4]: 4 meq/L | LDH [4]: 82.6 IU/L | Na [4]: 146.6 meq/L | PL [4]: 168.8 mg/dL | RALB [4]: 3 g/dL | TBIL [4]: 0.014 mg/dL | TC [4]: 85.2 mg/dL | TG [4]: 163.4 mg/dL | TP [4]: 6.6 g/dL | gamma-GTP [4]: 1 IU/L | TERMINAL_BW (800 mg/kg, 72 h, dose level High, time 3 day): 201.2 g
